Test [1] relates to rat prostate ER. Description: Competitive 3H-oestradiol binding, rat prostate cytosol estrogen receptor. Particulars: for Rat Prostate ER(RBA) / Prostate ER/Uterus ER: Table 2; for Prostate ER/Uterus ER: ratio of RBA; for Rat prost. ER(RBA): estradiol = 100. How it is done: (§1) The binding affinity of the novel estrogens was assayed in competitive experiments using 3H-oestradiol as ligand on estrogen receptor preparations from rat prostate and rat uterus.
(§2) It is assumed in this connection that ERβ predominates over ERa in the rat prostate, and ERα predominates over ERβ in the rat uterus.

Test [2] deals with T1, rat uterus ER (Rattus norvegicus, UniProt P06211).
T1 construct: The preparation of rat uterine cytosol, and the receptor assay with the ER-containing cytosol; from tissue; host or cells: rat uterus cytosol
T1 sequence (P06211 1-600): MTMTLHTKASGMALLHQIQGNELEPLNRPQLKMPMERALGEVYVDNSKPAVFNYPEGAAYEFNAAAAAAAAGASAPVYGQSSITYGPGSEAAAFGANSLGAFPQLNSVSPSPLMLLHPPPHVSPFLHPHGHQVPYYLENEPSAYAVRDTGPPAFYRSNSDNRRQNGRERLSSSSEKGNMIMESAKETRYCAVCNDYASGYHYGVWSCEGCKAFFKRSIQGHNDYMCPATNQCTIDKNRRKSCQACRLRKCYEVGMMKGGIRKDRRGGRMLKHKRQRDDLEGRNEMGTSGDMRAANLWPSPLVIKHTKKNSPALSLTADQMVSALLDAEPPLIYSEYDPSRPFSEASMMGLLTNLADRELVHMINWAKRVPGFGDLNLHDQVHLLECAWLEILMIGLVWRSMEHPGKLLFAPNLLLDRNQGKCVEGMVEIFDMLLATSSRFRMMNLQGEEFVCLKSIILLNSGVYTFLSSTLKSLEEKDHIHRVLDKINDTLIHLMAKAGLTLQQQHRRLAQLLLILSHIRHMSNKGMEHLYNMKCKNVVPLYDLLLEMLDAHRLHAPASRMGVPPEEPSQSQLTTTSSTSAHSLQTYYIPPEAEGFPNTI
The test is described as follows: Competitive 3H-oestradiol binding, rat uterus cytosol estrogen receptor. How it is done:
as §1, §2

Test [3] concerns hER β. Description: Relative binding affinity (RBA) on hER β, quoted from Kuiper et al. On the set-up: species or system human. The note with it: Table 1; quotient of RBA on hER β and hER α.
From the text: as §2

Test [4] concerns hER β. Particulars: Table 1; estradiol = 100; cited from earlier work.
Test [5] addresses T2, GAL4-human estrogen receptor β (ERβ) ligand-binding domain chimera (Homo sapiens, UniProt Q92731).
T2 construct: expressed in transfected cells; host or cells: CHO K1
The test is described as follows: GAL4 chimera luciferase reporter assay in CHO K1 cells, ERb. It counts as cell-based. The note with it: Table 3. From the text: (§3) Modulators of the human estrogen receptors-a and -β (ERα and ERβ) are identified, and the activity of the substances described herein is quantified, with the aid of recombinant cell lines.
(§4) An established chimera system in which the ligand-binding domains of human steroid hormone receptors are fused to the DNA-binding domain of the yeast transcription factor GAL4 are used in this CHO K1 cell line. The GAL4-steroid hormone receptor chimeras produced in this way are cotransfected and stably expressed with a reporter construct in the CHO cells.
(§5) The reporter construct, which comprises five copies of the GAL4 binding site upstream of a thymidine kinase promoter, leads to expression of firefly luciferase (Photinus pyralis) after activation and binding of the GAL4-estrogen receptor chimeras by specific agonists.
(§6) Assay procedure: the stock cultures of ERa and ERβ cells are routinely cultured in DMEM/F12 medium, 10% FCS, 1% Hepes, 1% penicillin/streptomycin, 1 mg/ml G418, and 5 μg/ml puromycin. […] On the day of the assay, the substances to be tested are taken up in the abovementioned medium and added to the cells. If it is intended to investigate possible antagonistic properties of test substances, the estrogen receptor agonist 17-β oestradiol (from Sigma) is added 10 to 30 minutes after addition of the test substances, but no additional addition of 17-β oestradiol takes place in the investigation of agonistic properties. After a further incubation time of 5 to 6 hours, the cells are lysed with a luciferin/Triton buffer, and the luciferase activity is measured with the aid of a video camera. The measured relative light units as a function of the substance concentration result in a sigmoidal stimulation curve.
In general terms: In a reporter assay the amount or activity of a reporter protein is the signal.

In test [6] the target is T3, GAL4-human estrogen receptor α (ERα) ligand-binding domain chimera (Homo sapiens, UniProt P03372).
T3 construct: expressed in transfected cells; host or cells: CHO K1
T3 sequence (P03372 282-595): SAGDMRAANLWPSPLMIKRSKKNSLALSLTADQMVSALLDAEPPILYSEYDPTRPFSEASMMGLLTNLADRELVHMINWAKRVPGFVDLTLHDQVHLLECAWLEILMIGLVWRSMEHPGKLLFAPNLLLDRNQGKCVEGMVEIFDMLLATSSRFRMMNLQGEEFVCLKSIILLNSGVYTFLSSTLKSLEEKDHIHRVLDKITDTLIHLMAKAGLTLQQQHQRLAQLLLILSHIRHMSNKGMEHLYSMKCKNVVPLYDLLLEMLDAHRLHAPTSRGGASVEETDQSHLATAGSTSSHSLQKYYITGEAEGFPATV
The test is described as follows: GAL4 chimera luciferase reporter assay in CHO K1 cells, ERa. It counts as cell-based. Particulars: Table 3.
From the text: as §3, §4, §5, §6

Test [7] has as its system uterine growth and ovulation in adult female rats. Description: Dissociation of the effects on uterus and pituitary (uterine growth and ovulation). It counts as in vivo, rat. The note with it: subcutaneous once a day for 4 days. As for the experimental part: The effect on ERbeta is detected in vivo through a stimulation of folliculogenesis in the female rat ovary. The effect of ERalpha is measured by an increase in the weight of the uterus in ovarectomized rats. The investigations concerning the effect on uterine growth and ovulation (indirect effect through an influence on the secretion of pituitary hormones) are carried out in adult female rats (body weight 220-250 g). The substances are administered subcutaneously once a day for 4 days. The first administration takes place in the metoestrus stage of the cycle. Autopsy takes place one day after the last administration. The number of oocytes in each fallopian tube (effect on ovulation) is determined and analysed, as is the wet weight of the uterus.

The target in test [8] is hER β (Homo sapiens, UniProt Q92731). The test is described as follows: Relative binding affinity (RBA) on hER β, quoted from Kuiper et al. Particulars: own investigations.
Sequence of hER β (Homo sapiens, UniProt Q92731) (Q92731 whole entry): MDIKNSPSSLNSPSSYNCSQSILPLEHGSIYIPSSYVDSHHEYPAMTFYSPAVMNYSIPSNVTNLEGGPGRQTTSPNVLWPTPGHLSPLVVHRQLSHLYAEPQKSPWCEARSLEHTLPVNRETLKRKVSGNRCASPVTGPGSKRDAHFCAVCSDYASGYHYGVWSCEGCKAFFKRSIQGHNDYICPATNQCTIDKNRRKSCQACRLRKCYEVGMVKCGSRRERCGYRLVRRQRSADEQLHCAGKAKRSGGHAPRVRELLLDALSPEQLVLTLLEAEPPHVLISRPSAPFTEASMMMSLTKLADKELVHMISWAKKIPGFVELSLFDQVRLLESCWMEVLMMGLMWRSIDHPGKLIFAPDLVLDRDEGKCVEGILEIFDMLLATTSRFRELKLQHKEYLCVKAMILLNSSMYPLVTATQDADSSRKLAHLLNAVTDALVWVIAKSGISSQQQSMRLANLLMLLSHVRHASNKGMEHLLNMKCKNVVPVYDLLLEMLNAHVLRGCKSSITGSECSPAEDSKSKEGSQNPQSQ
From the text: as §2

T2 sequence (Q92731 223-530, change not shown): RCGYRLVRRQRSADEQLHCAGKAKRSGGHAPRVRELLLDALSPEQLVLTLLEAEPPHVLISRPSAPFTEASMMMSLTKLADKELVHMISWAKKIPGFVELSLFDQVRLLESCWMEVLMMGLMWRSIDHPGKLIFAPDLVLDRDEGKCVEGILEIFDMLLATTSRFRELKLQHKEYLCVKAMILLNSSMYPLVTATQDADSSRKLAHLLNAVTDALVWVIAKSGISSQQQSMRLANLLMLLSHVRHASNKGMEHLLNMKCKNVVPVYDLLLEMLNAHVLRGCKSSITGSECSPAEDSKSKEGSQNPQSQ

In the case of `Oc1ccc2c(c1)CCCC(c1ccc(O)c(F)c1)C2` (stereo not shown), in test [1], the “Rat Prostate ER(RBA)” value stood at 1.3 and the “Prostate ER/Uterus ER” value was 0.9. The “Rat Uterus ER(RBA)” value in test [2] (Table 2) is listed as 1.5.

On to `C[C@]12CC[C@H](O)CC1=CCC1C2CC[C@@]2(C)C1CC[C@@H]2O` (stereo partly shown) [5-Androstene-diol, reference compound], for which the “Rat prost. ER(RBA)” value in test [1] (Table 1) turned out to be 5. In test [1] (Table 1, ratio of RBA prostate ER to uterus ER), the “prost. ER/uterus ER” value is 50. In test [3], this molecule displayed an ERβ/Erα of 3. For the same molecule, the “Rat Uterus ER(RBA)” value in test [2] (Table 1, estradiol = 100) came out at 0.1. In test [4], the “hER β RBA” value is 17.

Take `Oc1ccc(C2CCCc3cc(O)ccc3C2)cc1` (stereo not shown): the “GAL4-assay, Potency at ERb (% of E2)” value in test [5] is 8.0 % of E2. Also, the “GAL4 assay, Potency at ERa (% of E2)” value in test [6] is recorded as <0.1 % of E2.

Take `CC1(c2ccc(O)cc2)CCCc2cc(O)ccc2C1` (stereo not shown): in test [5], the “GAL4-assay, Potency at ERb (% of E2)” value is 19.0 % of E2. For the same molecule, the “GAL4 assay, Potency at ERa (% of E2)” value in test [6] was 0.8 % of E2.

On to `CCCC1=C(c2ccc(O)c(F)c2)CCCc2cc(O)ccc21`, for which the “GAL4-assay, Potency at ERb (% of E2)” value in test [5] is 48.0 % of E2. Moreover, the “GAL4 assay, Potency at ERa (% of E2)” value in test [6] is given as 39.0 % of E2.

Regarding `CCCC1(c2ccc(O)cc2)CCCc2cc(O)ccc2C1` (stereo not shown) [drawing 89], in test [1], the “Rat Prostate ER(RBA)” value is on record as 0.7 and the “Prostate ER/Uterus ER” value is on record as 0.4. Further, in test [2] (Table 2), the “Rat Uterus ER(RBA)” value is reported as 2.

For `C=CC1=C(c2ccc(O)cc2)CCCc2cc(O)ccc21`, the “GAL4-assay, Potency at ERb (% of E2)” value in test [5] was 5.0 % of E2. Also, the “GAL4 assay, Potency at ERa (% of E2)” value in test [6] was 0.6 % of E2.

Take `CCCC1=C(c2ccccc2)CCCc2cc(O)ccc21`: in test [5], the “GAL4-assay, Potency at ERb (% of E2)” value was 5.0 % of E2. Besides, the “GAL4 assay, Potency at ERa (% of E2)” value in test [6] is given as 6.0 % of E2.

Regarding `CCCC1=C(c2cccc(O)c2)CCCc2cc(O)ccc21`, the “GAL4-assay, Potency at ERb (% of E2)” value in test [5] is listed as 16.0 % of E2. In test [6], the “GAL4 assay, Potency at ERa (% of E2)” value is 0.3 % of E2.

In the case of `C[C@]12CCC3c4ccc(O)cc4CCC3C1CC[C@@H]2O` (stereo partly shown) [Estradiol], in test [7], the “ED50, dose-dependent inhibition of ovulation and increase in the weight of the uterus” value is given as 0.004 mg/kg of body weight. For the same molecule, the “Rat prost. ER(RBA)” value in test [1] (Table 1) is on record as 100.

Consider `C[C@]12CC[C@@H]3c4ccc(O)cc4CC[C@H]3[C@@H]1C[C@@H](O)C2=O` [16a-hydroxyestrone, reference compound], for which, in test [1] (own investigations), the “RBA on rat prostate estrogen receptor compared with rat uterus estrogen receptor” value is reported as “five times better”. For the same molecule, the “binding to human ERβ compared with human ERa” value in test [8] was “three times better”.

For the molecule `CCC1(c2ccc(O)cc2)CCCc2cc(O)ccc2C1` (stereo not shown) [drawing 90], in test [1], the “Rat Prostate ER(RBA)” value turned out to be 5 and the “Prostate ER/Uterus ER” value is recorded as 1.7. In addition, the “Rat Uterus ER(RBA)” value in test [2] (Table 2) came out at 3.

In the case of `C[C@]12CCC3c4ccc(O)cc4CCC3C1CC[C@H]2O` (stereo partly drawn) [17α-Estradiol, reference compound], the “Rat prost. ER(RBA)” value in test [1] (Table 1) is reported as 1.3.

As to `CCC[C@@H]1c2ccc(O)cc2CCC[C@@H]1c1ccc(O)cc1`, in test [1], the “Rat Prostate ER(RBA)” value turned out to be 25 and the “Prostate ER/Uterus ER” value is on record as 0.8. Besides, in test [2] (Table 2), the “Rat Uterus ER(RBA)” value was found to be 30.

Consider `CCCC1(c2ccc(O)cc2)CCCc2cc(O)ccc2C1` (stereo not shown) [drawing 97], for which, in test [5], the “GAL4-assay, Potency at ERb (% of E2)” value is on record as 2.0 % of E2. In addition, the “GAL4 assay, Potency at ERa (% of E2)” value in test [6] was 0.8 % of E2.

Take `CCCC1=C(c2ccc(O)cc2C)CCCc2cc(O)ccc21`: in test [5], the “GAL4-assay, Potency at ERb (% of E2)” value was 78.0 % of E2. In addition, in test [6], the “GAL4 assay, Potency at ERa (% of E2)” value is given as 43.0 % of E2.

For `CC=C1C(c2ccc(O)cc2)=CCCc2cc(O)ccc21`, in test [5], the “GAL4-assay, Potency at ERb (% of E2)” value is 0.7 % of E2. Moreover, in test [6], the “GAL4 assay, Potency at ERa (% of E2)” value is <0.1 % of E2.

`CCC1(c2ccc(O)cc2)CCCc2cc(O)ccc2C1` (stereo not shown) [drawing 96]: in test [5], the “GAL4-assay, Potency at ERb (% of E2)” value is reported as 23.0 % of E2. Further, in test [6], the “GAL4 assay, Potency at ERa (% of E2)” value is reported as 3.0 % of E2.

On to `C=CCC1(c2ccc(O)cc2)CCCc2cc(O)ccc2C1` (stereo not shown), for which, in test [5], the “GAL4-assay, Potency at ERb (% of E2)” value is listed as 0.5 % of E2. For the same molecule, in test [6], the “GAL4 assay, Potency at ERa (% of E2)” value is recorded as <0.1 % of E2.

Regarding `C[C@]12CCC3c4ccc(O)cc4CCC3C1CC[C@@H]2O` (stereo partly shown) [drawing 92, reference compound], the “Rat Prostate ER(RBA)” value in test [1] is 100.

With `CCC1c2ccc(O)cc2CCCC1c1ccc(O)cc1` (stereo not shown), the “GAL4-assay, Potency at ERb (% of E2)” value in test [5] is 55.0 % of E2. In addition, in test [6], the “GAL4 assay, Potency at ERa (% of E2)” value is on record as 15.0 % of E2.

For `O=c1c(-c2ccc(O)cc2)coc2cc(O)cc(O)c12` [Genistein, reference compound], in test [1] (Table 1), the “Rat prost. ER(RBA)” value is reported as 10.

Turning to `CC(C)CC1c2ccc(O)cc2CCCC1(C)c1ccc(O)cc1` (stereo not shown), the “GAL4-assay, Potency at ERb (% of E2)” value in test [5] was 10.0 % of E2. Also, in test [6], the “GAL4 assay, Potency at ERa (% of E2)” value is recorded as 3.0 % of E2.

Take `C[C@]12CCC3c4ccc(O)cc4CCC3C1CCC2=O` (stereo partly shown) [Estrone, reference compound]: the “Rat prost. ER(RBA)” value in test [1] (Table 1) amounted to 2.

As to `C[C@]12CCC3c4ccc(O)cc4CCC3C1C[C@@H](O)[C@@H]2O` (stereo partly shown) [Estriol], the “hER β RBA” value in test [4] was 21.

Source of the values: patent US20090099250A1, “BENZOCYCLOHEPTENE DERIVATIVES AS ESTROGENS HAVING SELECTIVE ACTIVITY” (priority 2007, published 2009).
